One assay has as its target T1, aromatase (Rattus norvegicus, UniProt P22443).
T1 construct: ovarian microsomes are obtained from rats treated with pregnant mares serum gonadotropin; from tissue; host or cells: ovarian microsomes of rats treated with pregnant mares serum gonadotropin
T1 sequence (P22443 1-508): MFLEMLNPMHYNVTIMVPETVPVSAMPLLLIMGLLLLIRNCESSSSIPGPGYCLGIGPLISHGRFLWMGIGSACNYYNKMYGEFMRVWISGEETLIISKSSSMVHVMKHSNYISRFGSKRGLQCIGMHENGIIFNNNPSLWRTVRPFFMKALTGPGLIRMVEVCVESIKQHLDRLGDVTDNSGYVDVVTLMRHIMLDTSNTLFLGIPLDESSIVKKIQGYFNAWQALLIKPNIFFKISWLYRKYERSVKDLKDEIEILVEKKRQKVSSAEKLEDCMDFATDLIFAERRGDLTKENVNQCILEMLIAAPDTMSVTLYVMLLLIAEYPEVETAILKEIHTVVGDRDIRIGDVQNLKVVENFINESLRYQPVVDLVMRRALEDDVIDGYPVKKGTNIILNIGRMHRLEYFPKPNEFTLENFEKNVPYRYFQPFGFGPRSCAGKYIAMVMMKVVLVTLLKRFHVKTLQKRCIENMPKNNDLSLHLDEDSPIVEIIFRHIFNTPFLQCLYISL
Briefly: Aromatase inhibition in the rat ovarian microsome assay (modified isolated rat ovarian microsome method of Brodie et al.). It is filed as biochemical. The note with it: rat ovarian microsomes; substrate (androstenedione) concentration 0.1 μM.

The subject of assay [1] is estrogen synthesis (aromatization). Briefly: Estrogen Synthesis Inhibition in Rats (uterine weight and ovarian steroid concentration). Conditions: 7 days; for Mean Uterine Weight: testosterone propionate-treated, significantly different from testosterone-treated control (163.88); for Mean Steroid Concentration, estriol / Mean Steroid Concentration, estradiol: ovary; for Mean Steroid Concentration, estriol: testosterone-treated control 0.68; for Mean Steroid Concentration, estradiol: testosterone-treated control 1.29. It is filed as in vivo, immature female Wistar rats.
Procedure: Test compounds were administered for seven days as a component of the diet. Control animals received diet without the test compound. Beginning on the fourth day of the test, all animals treated with the test compound and one half of the control animals were given a subcutaneous injection of 1.0 mg of testosterone propionate in corn oil. The remaining control animals received only an equivalent volume of corn oil.
After two hours, the animals were killed by decapitation. Uteri were isolated, trimmed of extraneous connective tissue, and weighed.
The ovarian steroids were extracted with 1.5 ml of 9:1 (v/v) toluene/ethanol to which had been added 25 to 100 mcg. each of unlabelled estradiol, estriol, and estrone, and approximately 1000 dpm of [^14 C]-estradiol. The samples were vortexed, centrifuged at 500×g for 10 minutes, and the organic phase was transferred to a conical vial. Two additional extractions were performed on the residue in the same way. The pooled organic extracts were evaporated for subsequent thin-layer chromatography.
Ovarian proteins were precipitated by the addition of 5.0 ml of ethanol to the remaining aqueous phase. After an overnight incubation at 4° C., the samples were centrifuged at 1500×g for 10 minutes. The supernatant was discarded, and the pellet was dissolved in 0.3 N potassium hydroxide.
The organic residue from each above extraction was redissolved in 9:1 (v/v) dichloromethane/methanol. The solution of each sample was applied to separate silica gel thin layer chromatography plates which contained a fluorescent indicator. The plates were developed in the first dimension with 160:38:1.5:0.5 (v/v/v/v) dichloromethane/ethyl acetate/methanol/acetic acid to within 3 cm of the top of the plate. After air-drying, the plate was developed in the second dimension with 180:19:1 (v/v/v) dichloromethane/methanol/ammonium hydroxide. The plate was air-dried and viewed under 254 nm UV light.
The visible spots were marked, and the plates were sprayed with primulin (0.001% in 4:1 v/v acetone/water) according to the method of Wright, J. Chromatography, 59, 220 (1971) which allowed for the identification of additional steroids under 365 nm UV light. The spots were scraped from the plate using a glass wool plugged Pasteur pipet attached to a vacuum line. The steroids were eluted directly into scintillation vials by the addition of 0.2 ml of dichloromethane followed by two washes each of 2.0 ml of methanol. The organic solvent was evaporated and 10.0 ml of scintillation fluid (Beckman Ready Solv-NA) was added to the vials. Samples were analyzed by liquid scintillation spectrometry. Corrections were made based on the recoveries of the [^14 C]-steroid. Steroid concentrations are expressed as femtomoles per milligram protein.

Assay [2] deals with DMBA-induced mammary tumors. As to the kind of experiment: DMBA-Induced Mammary Tumor Inhibition. Conditions: 300 ppm in diet (approx. 30 mg/kg/day). The assay is classed as in vivo, female Sprague-Dawley rats. On the procedure: Mammary tumors were produced in female Sprague-Dawley rats which were 50-60 days old by the gavage administration of 20 mg of 7,12-dimethylbenz[a]anthracene (DMBA). About six weeks after DMBA administration, the mammary glands were palpated at weekly intervals for the appearance of tumors. Whenever one or more tumors appeared and were measurable in an animal, that animal was selected for experimentation. […] Each control and test group contained 8 animals. The test compound was administered mixed into the food at a concentration of 300 ppm (corresponding to an appropriate daily dose of 30 mg/kg). The experiment included a group of control rats having tumors and were given food without the compound admixed. […] The area of each tumor was calculated by multiplying the shortest and longest diameters of the tumor. The treatment and measurement of animals continued for 5 weeks at which time the final areas of the tumors were determined.

[3] abbreviates: 30 ppm in feed (approx. 3 mg/kg/day).

Consider 24 compounds from patent publication US4757076A, “Method of inhibiting aromatase” (Eli Lilly and Company, priority 1984, dated 1988).

Where a name gives a salt, the structure may show the parent alone.

Procedure for aromatase: In this test system, ovarian microsomes are obtained from rats treated with pregnant mares serum gonadotropin. Test compounds are added to reaction vials containing 0.1 μM 4-androstene-3,17-dione, 100,000 dpm 1,2[^3 H]-androstenedione, the microsomes and a NADPH generating system. The concentrations of the inhibitors tested ranged between 0.005 and 10 μM.

In general, EC50 refers to the concentration at which the effect is half-maximal. Low values mean higher potency in that assay, high ones lower potency in that assay. On aromatase, `OC(c1ccc(Cl)cc1)(c1cccnc1)c1ccc2c(c1)OCO2` (stereo not drawn) [α-(4-chlorophenyl)-α-(3,4-methylenedioxyphenyl)-3-pyridinemethanol] showed a concentration for a half-maximal effect (EC50) of 500 nM.
Take `OC(c1cccnc1)(c1cccc(Br)c1)c1cccc(Br)c1` [α,α-bis(3-bromophenyl)-3-pyridinemethanol]: the EC50 at aromatase worked out at 2200 nM. This EC50 lies about 4.4-fold higher than the previous one.
Still for that read-out and setting: the result for `OC(Cc1ccc(Cl)cc1Cl)(c1ccc(Cl)cc1)c1cccnc1` (stereo not drawn) [α-(2,4-dichlorobenzyl)-α-(4-chlorophenyl)-3-pyridinemethanol] reads 3200 nM; that for `Cc1cncc(C(O)(c2ccccc2)c2ccc(Cl)cc2)c1` (stereo not drawn) [α-(4-chlorophenyl)-5-methyl-α-phenyl-3-pyridinemethanol], 4100 nM; that for `OC(Cc1ccc(Cl)cc1)(Cc1ccc(Cl)cc1)c1cccnc1` [α,α-bis(4-chlorobenzyl)-3-pyridinemethanol], > 5000 nM.
Still for that read-out and setting: in the case of `Clc1ccc(Cc2ccncc2)cc1` [4-(4-chlorobenzyl)pyridine] it was 550 nM; in that of `OC(Cc1ccc(Cl)cc1Cl)(c1ccc(Cl)cc1)c1cccnc1` (stereo not drawn) [α-(2,4-dichlorobenzyl)-α-(4-chlorophenyl)-3-pyridinemethanol hydrochloride], > 5000 nM; in that of `Clc1ccccc1C(c1ccncc1)c1ccccc1Cl` [4-bis(2-chlorophenyl)methylpyridine], 490 nM.
The same measure, in the same setting: in the case of `OC(Cc1ccc(Cl)cc1Cl)(Cc1ccc(Cl)cc1Cl)c1cccnc1` [α,α-bis(2,4-dichlorobenzyl)-3-pyridinemethanol hydrochloride] it was 1850 nM; in that of `OC(Cc1ccc(Cl)cc1)(c1cccnc1)c1cccc(Cl)c1` (stereo not drawn) [α-(4-chlorobenzyl)-α-(3-chlorophenyl)-3-pyridinemethanol], 3200 nM; in that of `OC(Cc1ccc(Cl)c(Cl)c1)(c1ccc(Cl)cc1)c1cccnc1` (stereo not drawn) [α-(3,4-dichlorobenzyl)-α-(4-chlorophenyl)-3-pyridinemethanol], 3150 nM.
In the case of `OC(Cc1ccccc1)(Cc1ccccc1)c1cccnc1` [α,α-dibenzyl-3-pyridinemethanol], on aromatase, the EC50 amounted to 2850 nM.
The compound `OC(Cc1ccc(Cl)cc1)(c1ccc(Cl)cc1)c1cccnc1` (stereo not drawn) [α-(4-chlorobenzyl)-α-(4-chlorophenyl)-3-pyridinemethanol] gave a concentration giving a half-maximal response (EC50) on aromatase of 2900 nM.
Still for that read-out and setting: the result for `OC(Cc1ccc(Cl)cc1)(Cc1ccc(Cl)cc1Cl)c1cccnc1` (stereo not drawn) [α-(4-chlorobenzyl)-α-(2,4-dichlorobenzyl)-3-pyridinemethanol] reads 2400 nM; that for `OC(c1ccccc1)(c1cccnc1)c1ccc(F)cc1F` (stereo not drawn) [α-(2,4-difluorophenyl)-α-phenyl-3-pyridinemethanol], 2050 nM; that for `O=[N+]([O-])c1ccc(Cc2ccncc2)cc1` [4-(4-nitrobenzyl)pyridine], 980 nM.
Same read-out and setting: the result for `CCCSC(c1ccc(Cl)cc1)(c1ccc(Cl)cc1)c1cccnc1` [3-[α-(4-chlorophenyl)-α-(n-propylthio)-4-chlorobenzyl]pyridine] reads 1750 nM; that for `OC(c1ccc(Cl)cc1)c1cccnc1` (stereo not drawn) [α-(3-pyridyl)-4-chlorobenzyl alcohol], 2400 nM.
Still for that read-out and setting: in the case of `Cc1ccc(C(O)(c2ccccc2)c2cccnc2)cc1` (stereo not drawn) [α-(4-methylphenyl)-α-phenyl-3-pyridinemethanol] it was 2400 nM; in that of `CN(C)c1ccc(C(O)(c2ccncc2)c2ccc(N(C)C)cc2)cc1` [α,α-bis[4-(dimethylamino)phenyl]-4-pyridinemethanol], 3400 nM.
For `OC(c1cccnc1)(c1ccc(Cl)cc1Cl)c1ccc(Cl)cc1Cl` [α,α-bis(2,4-dichlorophenyl)-3-pyridinemethanol hydrochloride], it took 4000 nM to reach a half-maximal effect at aromatase (EC50).
For `OC(c1ccc(Cl)cc1)(c1ccc(Cl)cc1)c1cccnc1` [α,α-bis(4-chlorophenyl)-3-pyridinemethanol], the “Mean Uterine Weight” value in assay [1] (30 ppm in feed (approx. 3 mg/kg/day), 4 animals, p < 0.05) came to 127.25 mg; in assay [1] (300 ppm in feed (approx. 30 mg/kg/day), 5 animals, p < 0.05) it was 87.80 mg. The “Mean Steroid Concentration, estriol” value in assay [1] (setting [3]) is on record as 0.70 femtomoles per milligram of protein; in assay [1] (300 ppm in feed (approx. 30 mg/kg/day)), 0.39 femtomoles per milligram of protein. For the same compound, the “Mean Steroid Concentration, estradiol” value in assay [1] (setting [3]) is listed as 1.04 femtomoles per milligram of protein; in assay [1] (300 ppm in feed (approx. 30 mg/kg/day), p < 0.05), 0.36 femtomoles per milligram of protein. Moreover, in assay [2] (after 5 weeks, control 1140), the “Mean Tumor Area, Finish” value was determined as 433 mm^2. In assay [2] (start of 5-week test, control 73.9), the “Mean Tumor Area, Start” value is 108.8 mm^2.
In the case of `CCCN(CCC)C(c1ccc(Cl)cc1)c1cccnc1` (stereo not drawn) [α-(4-chlorophenyl)-N,N--di(n-propyl)-3-pyridylmethylamine], on aromatase, the response was half-maximal at 150 nM (EC50).
In the case of `OC(Cc1ccc(Cl)cc1)(c1ccncc1)c1ccc(Cl)cc1` (stereo not shown) [1,2-bis(4-chlorophenyl)-1-(4-pyridyl)ethanol], at aromatase, the midpoint of the response, the EC50, lay at 185 nM.
